Reference: patent US12528815B2, “5-amino-8-(4-pyridyl)-[1,2,4]triazolo[4,3-c]pyrimidin-3-one compounds for use against cancer” (Nxera Pharma UK Limited, priority 2020, dated 2026)

Tests used:
[1] = molecular target: T1, human adenosine A1 receptor (Homo sapiens, UniProt P30542); experiment: Inhibition binding assay, human adenosine A1 receptor membranes, [3H]DPCPX; settings: 1 nM [3H]DPCPX, 25° C., 1 h; IC50 converted to Ki with Cheng-Prusoff; read-out: A1 pKi (converted)
T1 construct: expressed in transfected cells; host or cells: HEK293 cells infected with BacMam (the same paragraph also labels the preparation CHO-hA1)
T1 sequence (P30542 1-326): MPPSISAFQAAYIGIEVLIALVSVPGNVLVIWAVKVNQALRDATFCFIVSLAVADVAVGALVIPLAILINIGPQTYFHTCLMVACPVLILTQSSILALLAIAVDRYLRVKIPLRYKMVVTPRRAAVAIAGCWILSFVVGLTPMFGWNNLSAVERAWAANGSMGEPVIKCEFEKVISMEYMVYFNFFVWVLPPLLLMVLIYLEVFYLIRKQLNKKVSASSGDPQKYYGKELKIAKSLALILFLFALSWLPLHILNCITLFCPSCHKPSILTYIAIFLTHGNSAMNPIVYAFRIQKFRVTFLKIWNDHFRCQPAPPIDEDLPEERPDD
Description: (§1) Inhibition binding assays were performed using 0.2 μg of membranes prepared from HEK293 cells infected with BacMam human adenosine A2A receptor or 1.4 μg of membranes prepared from HEK293 cells infected with BacMam human adenosine A1 receptor. Membranes were incubated in 50 mM Tris-HCl (HEK293-hA2A; pH 7.4) or 50 mM Tris-HCl, 100 mM NaCl, 10 mM MgCl2 (CHO-hA1; pH 7.4) in the presence of varying concentrations of test compound and 1 nM [^3H]ZM241385 (HEK293-hA2A) or [^3H]DPCPX (CHO-hA1) at 25° C. for 1 h. The assay was then terminated by rapid filtration onto GF/B grade Unifilter plates using a TomTec cell harvester, followed by 5×0.5 ml washes with ddH2O. Nonspecific binding was defined in the presence of 1 μM CGS15943 (HEK293-hA2A) or 1 μM DPCPX (CHO-hA1). Bound radioactivity was determined by liquid scintillation counting and inhibition curves were analysed using a four-parameter logistic equation. IC50 values were converted to Ki values with the Cheng-Prusoff equation using a KD value derived from saturation binding studies.

[2] = molecular target: T2, human adenosine A2A receptor (Homo sapiens, UniProt P29274); experiment: Inhibition binding assay, human adenosine A2A receptor membranes, [3H]ZM241385; settings: 1 nM [3H]ZM241385, HEK293-hA2A membranes, 25° C., 1 h; IC50 converted to Ki with Cheng-Prusoff; read-out: A2A pKi (converted)
T2 construct: expressed in transfected cells; host or cells: HEK293 cells infected with BacMam
Description: as §1

T2 sequence (P29274 whole entry): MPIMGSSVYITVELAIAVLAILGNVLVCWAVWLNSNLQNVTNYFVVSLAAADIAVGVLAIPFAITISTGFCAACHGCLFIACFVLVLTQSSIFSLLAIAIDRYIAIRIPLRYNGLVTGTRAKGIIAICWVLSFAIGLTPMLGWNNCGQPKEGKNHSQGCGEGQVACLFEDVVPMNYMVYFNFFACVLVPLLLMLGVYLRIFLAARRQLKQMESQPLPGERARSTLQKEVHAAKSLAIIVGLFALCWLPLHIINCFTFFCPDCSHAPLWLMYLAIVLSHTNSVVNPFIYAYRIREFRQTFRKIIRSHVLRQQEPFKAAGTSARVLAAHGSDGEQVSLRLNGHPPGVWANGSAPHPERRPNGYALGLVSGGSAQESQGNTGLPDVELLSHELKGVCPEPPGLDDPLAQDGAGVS

Row | Ki [1] [nM] | Ki [2] [nM] | SMILES
1 | 200 | 5.01 | Cc1cc(-c2c(-c3ccccc3)nc(N)n3c(=O)n(C)nc23)cc(C)n1 [Example 2-2, 5-amino-8-(2,6-dimethyl-4-pyridyl)-2-methyl-7-phenyl-[1,2,4]triazolo[4,3-c]pyrimidin-3-one]
2 | > 3160 | 316 | Cc1cc(-c2c(-c3ccccc3)nc(N)n3c(=O)n(CCN4C[C@@H](C)O[C@@H](C)C4)nc23)cc(C)n1 [Example 2-100, 5-amino-2-[2-((ds)-2,6-dimethylmorpholin-4-yl)ethyl]-8-(2,6-dimethyl-4-pyridyl)-7-phenyl-[1,2,4]triazolo[4,3-c]pyrimidin-3-one]
3 | 794 | 15.8 | Cc1cc(-c2c(-c3ccccc3)nc(N)n3c(=O)n(CCC#N)nc23)cc(C)n1 [Example 2-11, 3-[5-amino-8-(2,6-dimethyl-4-pyridyl)-3-oxo-7-phenyl-[1,2,4]triazolo[4,3-c]pyrimidin-2-yl]propanenitrile]
4 | 398 | 6.31 | Cc1cc(-c2c(-c3ccccc3)nc(N)n3c(=O)n(C[C@@H]4CN(C(=O)OC(C)(C)C)CCO4)nc23)cc(C)n1 [Example 2-69, tert-butyl (2S)-2-[[5-amino-8-(2,6-dimethyl-4-pyridyl)-3-oxo-7-phenyl-[1,2,4]triazolo[4,3-c]pyrimidin-2-yl]methyl]morpholine-4-carboxylate]
5 | > 3160 | 10 | C/C=C(\C)c1nc(N)n2c(=O)n(CCC(F)(F)F)nc2c1-c1cc(C)nc(C)c1 [Example 3-10, 5-amino-8-(2,6-dimethyl-4-pyridyl)-7-[(E)-1-methylprop-1-enyl]-2-(3,3,3-trifluoropropyl)-[1,2,4]triazolo[4,3-c]pyrimidin-3-one]
6 | 1000 | 12.6 | Cc1cc(-c2c(-c3ccccc3)nc(N)n3c(=O)n(CCC(=O)N(C)C)nc23)cc(C)n1 [Example 2-23, 3-[5-amino-8-(2,6-dimethyl-4-pyridyl)-3-oxo-7-phenyl-[1,2,4]triazolo[4,3-c]pyrimidin-2-yl]-N,N-dimethyl-propanamide]
7 | 316 | 12.6 | Cc1cc(-c2c(-c3ccccc3)nc(N)n3c(=O)n(C(C)c4ccccn4)nc23)cc(C)n1 (stereo not drawn) [Example 1-20, 5-amino-8-(2,6-dimethyl-4-pyridyl)-7-phenyl-2-[1-(2-pyridyl)ethyl]-[1,2,4]triazolo[4,3-c]pyrimidin-3-one]
8 | 200 | 0.631 | COC(=O)c1cc(-c2c(-c3ccccc3)nc(N)n3c(=O)n(CCC(F)(F)F)nc23)cc(C)n1 [Example 2-52, methyl 4-[5-amino-3-oxo-7-phenyl-2-(3,3,3-trifluoropropyl)-[1,2,4]triazolo[4,3-c]pyrimidin-8-yl]-6-methyl-pyridine-2-carboxylate]
9 | 631 | 31.6 | Cc1cc(-c2c(-c3ccccc3)nc(N)n3c(=O)n(CCN(C)C4CCN(c5ccccc5)CC4)nc23)cc(C)n1 [Example 1-93, 5-amino-8-(2,6-dimethyl-4-pyridyl)-2-[2-[methyl-(1-phenyl-4-piperidyl)amino]ethyl]-7-phenyl-[1,2,4]triazolo[4,3-c]pyrimidin-3-one]
10 | 126 | 1 | Cc1cc(-c2c(-c3ccccc3)nc(N)n3c(=O)n(CC4CCCOC4)nc23)cc(C)n1 (single isomer, unassigned) [Example 2-81-iso-2, 5-amino-8-(2,6-dimethyl-4-pyridyl)-7-phenyl-2-(tetrahydropyran-3-ylmethyl)-[1,2,4]triazolo[4,3-c]pyrimidin-3-one]
11 | 1000 | 3.98 | Cc1cc(-c2c(-c3ccc(F)cc3)nc(N)n3c(=O)n(Cc4ccc(Cl)cn4)nc23)cc(CO)n1 [Example 1-62, 5-amino-2-[(5-chloro-2-pyridyl)methyl]-7-(4-fluorophenyl)-8-[2-(hydroxymethyl)-6-methyl-4-pyridyl]-[1,2,4]triazolo[4,3-c]pyrimidin-3-one]
12 | 3.16 | 0.1 | Cc1cc(-c2c(-c3ccccc3)nc(N)n3c(=O)n(Cc4c(F)cccc4F)nc23)cc(C)n1 [Example 1-23, 5-amino-2-[(2,6-difluorophenyl)methyl]-8-(2,6-dimethyl-4-pyridyl)-7-phenyl-[1,2,4]triazolo[4,3-c]pyrimidin-3-one]
13 | 126 | 5.01 | Cc1cc(-c2c(-c3ccccc3)nc(N)n3c(=O)n(CCc4ccccc4)nc23)cc(Cl)n1 [Example 1-89, 5-amino-8-(2-chloro-6-methyl-4-pyridyl)-7-phenyl-2-(2-phenylethyl)-[1,2,4]triazolo[4,3-c]pyrimidin-3-one]
14 | > 3980 | 631 | Cc1cc(-c2c(-c3ccc(F)cc3)nc(N)n3c(=O)n(Cc4ccc(C#N)cn4)nc23)cc(CO)n1 [Example 1-63, 6-[[5-amino-7-(4-fluorophenyl)-8-[2-(hydroxymethyl)-6-methyl-4-pyridyl]-3-oxo-[1,2,4]triazolo[4,3-c]pyrimidin-2-yl]methyl]pyridine-3-carbonitrile]
15 |  | 50.1 | Cc1cc(-c2c(-c3ccccc3)nc(N)n3c(=O)n(C(C)C)nc23)cc(C)n1 [Example 2-4, 5-amino-8-(2,6-dimethyl-4-pyridyl)-2-isopropyl-7-phenyl-[1,2,4]triazolo[4,3-c]pyrimidin-3-one]
16 |  | 0.794 | COc1cc(-c2c(-c3ccc(F)cc3)nc(N)n3c(=O)n(Cc4ccc(C)cn4)nc23)cc(CO)n1 [Example 1-67, 5-amino-7-(4-fluorophenyl)-8-[2-(hydroxymethyl)-6-methoxy-4-pyridyl]-2-[(5-methyl-2-pyridyl)methyl]-[1,2,4]triazolo[4,3-c]pyrimidin-3-one]
17 |  | 39.8 | Cc1cc(-c2c(-c3ccccc3)nc(N)n3c(=O)n(CCN(C)C4(CO)CCc5ccccc5C4)nc23)cc(C)n1 (stereo not drawn) [Example 1-99, 5-amino-8-(2,6-dimethyl-4-pyridyl)-2-[2-[[2-(hydroxymethyl)tetralin-2-yl]-methyl-amino]ethyl]-7-phenyl-[1,2,4]triazolo[4,3-c]pyrimidin-3-one]
18 |  | 25.1 | Cc1cc(-c2c(-c3ccccc3)nc(N)n3c(=O)n(C[C@H]4CNCCN4C)nc23)cc(C)n1 [Example 2-86, 5-amino-8-(2,6-dimethyl-4-pyridyl)-2-[[(2R)-1-methylpiperazin-2-yl]methyl]-7-phenyl-[1,2,4]triazolo[4,3-c]pyrimidin-3-one]
19 |  | 15.8 | Cc1cc(-c2c(-c3ccccc3)nc(N)n3c(=O)n(C[C@H]4CN(C)CCO4)nc23)cc(C)n1 [Example 2-74, 5-amino-8-(2,6-dimethyl-4-pyridyl)-2-[[(2R)-4-methylmorpholin-2-yl]methyl]-7-phenyl-[1,2,4]triazolo[4,3-c]pyrimidin-3-one]
20 |  | 25.1 | Cc1cc(-c2c(-c3ccccc3)nc(N)n3c(=O)n(CCC(N)=O)nc23)cc(C)n1 [Example 2-31, 3-[5-amino-8-(2,6-dimethyl-4-pyridyl)-3-oxo-7-phenyl-[1,2,4]triazolo[4,3-c]pyrimidin-2-yl]propanamide]
21 |  | 100 | Cc1cc(-c2c(-c3ccccc3)nc(N)n3c(=O)n(C[C@H]4COCCN4C(=O)OC(C)(C)C)nc23)cc(C)n1 [Example 2-75, tert-butyl (3S)-3-[[5-amino-8-(2,6-dimethyl-4-pyridyl)-3-oxo-7-phenyl-[1,2,4]triazolo[4,3-c]pyrimidin-2-yl]methyl]morpholine-4-carboxylate]
22 |  | 1.58 | Cc1cc(-c2c(-c3ccc(F)cc3)nc(N)n3c(=O)n(Cc4ccc(F)cn4)nc23)cc(CO)n1 [Example 1-59, 5-amino-7-(4-fluorophenyl)-2-[(5-fluoro-2-pyridyl)methyl]-8-[2-(hydroxymethyl)-6-methyl-4-pyridyl]-[1,2,4]triazolo[4,3-c]pyrimidin-3-one]
23 |  | 25.1 | CNC(=O)CCn1nc2c(-c3cc(C)nc(C)c3)c(-c3ccccc3)nc(N)n2c1=O [Example 2-113, 3-(5-amino-8-(2,6-dimethylpyridin-4-yl)-3-oxo-7-phenyl-[1,2,4]triazolo[4,3-c]pyrimidin-2(3H)-yl)-N-methylpropanamide]
24 |  | 20 | Cc1cc(-c2c(-c3ccccc3)nc(N)n3c(=O)n(CCN4CCCC(C)C4)nc23)cc(C)n1 (stereo not drawn) [Example 2-98, 5-amino-8-(2,6-dimethyl-4-pyridyl)-2-[2-(3-methyl-1-piperidyl)ethyl]-7-phenyl-[1,2,4]triazolo[4,3-c]pyrimidin-3-one]
25 |  | 31.6 | Cc1cc(-c2c(-c3ccccc3)nc(N)n3c(=O)n(C[C@@H]4CNCCO4)nc23)cc(C)n1 [Example 2-71, (S)-5-amino-8-(2,6-dimethylpyridin-4-yl)-2-(morpholin-2-ylmethyl)-7-phenyl-[1,2,4]triazolo[4,3-c]pyrimidin-3(2H)-one]
